Results from patent US20130245006A1, “NOVEL INDOLIZINE DERIVATIVES, AND PREPARATION AND THERAPEUTIC USE THEREOF” (SANOFI, priority 2010, published 2013).
Converted amounts (≈) assume the structure as drawn.

Experiment: Solubility by HPLC relative to a reference sample
Assay type: physicochemical
Details: aqueous buffer, phosphate buffer, at the pH given
Procedure: The evaluation of the solubility of the compounds of the invention is carried out at pH 4 (using a phosphate buffer, […]) by HPLC using an H2O/CH3CN/CH3SO3H gradient, relative to a reference sample (a dilute solution of the product to be evaluated which serves as an internal control). The solubility S results are expressed in mg/ml. Generally, the compounds of the present invention have a solubility S≧4 mg/ml at pH≧4. Among them, mention may be made of the solubilities of the following compounds in the table below: […]

| Structure (SMILES) | solubility |
| --- | --- |
| CCCCc1cc2cc(C(=O)N(CC)CCC(=O)O)ccn2c1C(=O)c1ccc(CCCN(CCCC)CCCC)cc1 [Compound No. 7, 3-({2-Butyl-3-[4-(3-dibutylaminopropyl)benzoyl]indolizine-7-carbonyl}ethylamino)propionic acid] | 7200 µg/mL (≈ 12.2 mM) |
| CCc1cc2cc(C(=O)N3CCC[C@@]3(C)C(=O)OC)ccn2c1C(=O)c1ccc(CCCNC(C)(C)C)cc1 [compound 50, (S)-1-{3-[4-(3-tert-Butylaminopropyl)benzoyl]-2-ethylindolizine-7-carbonyl}-2-methylpyrrolidine-2-carboxylic acid methyl ester] | 8980 µg/mL (≈ 16.9 mM) |
| CCCCc1cc2cc(C(=O)N(CC(=O)OC)C(C)C)ccn2c1C(=O)c1ccc(CCCN(CCCC)CCCC)cc1 [compound 28, ({2-Butyl-3-[4-(3-dibutylamino-propyl)benzoyl]indolizine-7-carbonyl}isopropyl-amino)acetic acid methyl ester] | 2420 µg/mL (≈ 4.01 mM) |
| CCCCc1cc2cc(C(=O)N(CC(=O)OC(C)C)C(C)C)ccn2c1C(=O)c1ccc(CCCN(CCCC)CCCC)cc1 [compound 59, ({2-Butyl-3-[4-(3-dibutylaminopropyl)-benzoyl]indolizine-7-carbonyl}-isopropylamino)acetic acid isopropyl ester] | 5700 µg/mL (≈ 9.02 mM) |
| CCc1cc2cc(C(=O)N(CC(=O)OC)C(C)C)ccn2c1C(=O)c1ccc(CCCC2(NC(C)C)CCCC2)cc1 [compound 79, [(2-Ethyl-3-{4-[3-(1-isopropylamino-cyclopentyl)propyl]benzoyl}indolizine-7-carbonyl)isopropylamino]acetic acid methyl ester] | 8020 µg/mL (≈ 14 mM) |
| CCCCc1cc2cc(C(=O)N(CC(=O)OC)C(C)C)ccn2c1C(=O)c1ccc(CCCN(CC)CCCC)cc1 [compound 62, [(2-Butyl-3-{4-[3-(butylethylamino)propyl]benzoyl}indolizine-7-carbonyl)isopropylamino]acetic acid methyl ester] | 5300 µg/mL (≈ 9.2 mM) |
| CCc1cc2cc(C(=O)N(CC)Cc3nnn(C)n3)ccn2c1C(=O)c1ccc(CCCNC(C)(C)C)cc1 [Compound No. 17, 3-[4-(3-tert-Butylaminopropyl)benzoyl]-2-ethylindolizine-7-carboxylic acid ethyl(2-methyl-2H-tetrazol-5-ylmethyl)amide] | 8230 µg/mL (≈ 15.5 mM) |
| CCc1cc2cc(C(=O)N(CC(=O)OC)C(C)C)ccn2c1C(=O)c1ccc(CCCNC2CCCC2)cc1 [Compound No. 8, ({3-[4-(3-Cyclopentylaminopropyl)benzoyl]-2-ethylindolizine-7-carbonyl}isopropylamino)acetic acid methyl ester] | 4900 µg/mL (≈ 9.22 mM) |
| CCCCc1cc2cc(C(=O)N(CC)[C@@H](C)C(=O)OC)ccn2c1C(=O)c1ccc(CCCN(CCCC)CCCC)cc1 (stereo in doubt) [compound 69, (S)-2-({2-Butyl-3-[4-(3-dibutylaminopropyl)benzoyl]indolizine-7-carbonyl}ethyl-amino)propionic acid methyl ester] | 5720 µg/mL (≈ 9.47 mM) |
| CCCCN(CCCC)CCCc1ccc(C(=O)c2c(CC)cc3cc(C(=O)N(CC)CC(=O)OC(C)C)ccn23)cc1 [compound 58, ({3-[4-(3-Dibutylamino-propyl)benzoyl]-2-ethylindolizine-7-carbonyl}ethyl-amino)acetic acid isopropyl ester] | 6300 µg/mL (≈ 10.7 mM) |
| CCc1cc2cc(C(=O)N(CC(=O)OC)C(C)C)ccn2c1C(=O)c1ccc(CCCNC(C)(C)C)cc1 [compound 31, ({3-[4-(3-tert-Butylaminopropyl)benzoyl]-2-ethylindolizine-7-carbonyl}isopropylamino)acetic acid methyl ester] | 2800 µg/mL (≈ 5.39 mM) |
| CCCCc1cc2cc(C(=O)N(CC)Cc3nc(C)no3)ccn2c1C(=O)c1ccc(CCCN(CCCC)CCCC)cc1 [Compound No. 10, 2-Butyl-3-[4-(3-dibutylaminopropyl)benzoyl]indolizine-7-carboxylic acid ethyl(3-methyl-[1,2,4]oxadiazol-5-ylmethyl)amide] | 4980 µg/mL (≈ 8.11 mM) |
| CCc1cc2cc(C(=O)N(CC(=O)OC)C(C)C)ccn2c1C(=O)c1ccc(CCC(C)(C)NC2CCCC2)cc1 [Compound No. 19, ({3-[4-(3-Cyclopentylamino-3-methylbutyl)benzoyl]-2-ethylindolizine-7-carbonyl}isopropylamino)acetic acid methyl ester] | 7200 µg/mL (≈ 12.9 mM) |
| CCCCc1cc2cc(C(=O)N(CC)Cc3nnn(C)n3)ccn2c1C(=O)c1ccc(CCCN(CCCC)CCCC)cc1 [Compound No. 9, 2-Butyl-3-[4-(3-dibutylaminopropyl)benzoyl]indolizine-7-carboxylic acid ethyl(2-methyl-2H-tetrazol-5-ylmethyl)amide] | 7220 µg/mL (≈ 11.8 mM) |
| CCc1cc2cc(C(=O)N(CC)Cc3nnn(C)n3)ccn2c1C(=O)c1ccc(CCC(C)(C)NC(C)(C)C)cc1 [Compound No. 18, 3-[4-(3-tert-Butylamino-3-methylbutyl)benzoyl]-2-ethylindolizine-7-carboxylic acid ethyl(2-methyl-2H-tetrazol-5-ylmethyl)amide] | 7880 µg/mL (≈ 14.1 mM) |
| CCc1cc2cc(C(=O)N(CC(=O)OC)C(C)C)ccn2c1C(=O)c1ccc(CCCN(CC)C(C)C)cc1 [compound 55, [(2-Ethyl-3-{4-[3-(ethylisopropylamino)propyl]benzoyl}indolizine-7-carbonyl)isopropylamino]acetic acid methyl ester] | 8820 µg/mL (≈ 16.5 mM) |
| CCCCc1cc2cc(C(=O)N3CCC[C@H]3C(=O)OC)ccn2c1C(=O)c1ccc(CCCN(CCCC)CCCC)cc1 [Compound No. 2, (S)-1-{2-Butyl-3-[4-(3-dibutylamino-propyl)benzoyl]indolizine-7-carbonyl}-pyrrolidine-2-carboxylic acid methyl ester] | 6300 µg/mL (≈ 10.5 mM) |
| CCCN(CCC)CCCc1ccc(C(=O)c2c(CC)cc3cc(C(=O)N(CC(=O)OC)C(C)C)ccn23)cc1 [compound 61, ({3-[4-(3-Dipropylamino-propyl)benzoyl]-2-ethylindolizine-7-carbonyl}isopropylamino)acetic acid methyl ester] | 8930 µg/mL (≈ 16.3 mM) |
| CCCCc1cc2cc(C(=O)N(CC(=O)O)C(C)C)ccn2c1C(=O)c1ccc(CCCN(CC)CC)cc1 [compound 75, ({2-Butyl-3-[4-(3-diethylamino-propyl)benzoyl]indolizine-7-carbonyl}isopropylamino)acetic acid] | 8400 µg/mL (≈ 15.7 mM) |
| CCc1cc2cc(C(=O)N(CC(=O)O)C(C)C)ccn2c1C(=O)c1ccc(CCCNC(C)(C)C)cc1 [compound 76, ({3-[4-(3-tert-Butylamino-propyl)benzoyl]-2-ethylindolizine-7-carbonyl}isopropylamino)acetic acid] | 6200 µg/mL (≈ 12.3 mM) |
| CCc1cc2cc(C(=O)N(CC(=O)OC)C(C)C)ccn2c1C(=O)c1ccc(CCCNC2CCCCC2)cc1 [compound 35, ({3-[4-(3-Cyclohexylaminopropyl)benzoyl]-2-ethylindolizine-7-carbonyl}isopropylamino)acetic acid methyl ester] | 1570 µg/mL (≈ 2.88 mM) |
| CCCCc1cc2cc(C(=O)N(CC)CCOC(C)C)ccn2c1C(=O)c1ccc(CCCN(CCCC)CCCC)cc1 [compound 23, 2-Butyl-3-[4-(3-dibutylaminopropyl)benzoyl]indolizine-7-carboxylic acid ethyl(2-isopropoxyethyl)amide] | 6170 µg/mL (≈ 10.2 mM) |
